Laboratory results from PMC12656329, “Specific Hepatorenal Toxicity and Cross-Species Susceptibility of Eight Representative Pesticides” (Toxics, 2025).
“Also recorded” adds a separate entry of the source.

What was measured:
[1] = tested on: CCC-HEL-1 hepatocytes; experiment: CCK-8 cytotoxicity assay, CCC-HEL-1; assay type: cell-based; conditions: Homo sapiens, Hepatocyte; CCK-8, 24 h exposure
Experimental: (§1) Human embryonic kidney 293T (HEK293T) cells and rat renal NRK cells were maintained in high-glucose DMEM supplemented with 10% fetal bovine serum (FBS) and 1% penicillin–streptomycin at 37 °C under 5% CO2 until reaching 70–80%. Human liver CCC-HEL-1 cells were cultured under identical conditions but with 20% FBS, while rat normal hepatocytes were grown in high-glucose MEM containing 20% FBS and 1% penicillin–streptomycin. Stock solutions (500 g/L) of eight pesticide standards were prepared in dimethyl sulfoxide (DMSO) and stored at −20 °C. Working concentrations were freshly diluted in serum-containing culture medium prior to each experiment.
(§2) The cytotoxicity of eight pesticides on four mammalian cell lines was assessed using the Cell Counting Kit-8 (CCK-8) assay. Initially, stock solutions of each pesticide were prepared by dissolving the compound in dimethyl sulfoxide (DMSO) to a final concentration of 500 g/L. For the assay, cells were seeded into 96-well plates at a density of 2 × 10^4 cells per well in 100 µL of medium and incubated for 24 h at 37 °C under a 5% CO2 atmosphere to allow for attachment. Subsequently, the culture medium was replaced with fresh medium containing the pesticides at a series of final concentrations (0, 10, 100, 200, 400, 800, 1000, and 2500 mg/L). Pesticide working concentrations were prepared through serial dilution of the 500 g/L DMSO stock solution, resulting in variable final DMSO concentrations across treatment groups (ranging from 0.002% to 0.5% v/v). A media-only blank (no cells) was included for background absorbance correction, and a solvent control (0.1% DMSO, no pesticide) was used to account for any vehicle effects. All conditions were performed in five replicates. […] At DMSO concentrations ranging from 0.1% to 0.2%, the viability of all four cell lines remained stable above 80%. At a 1% DMSO concentration, the viability of all four cell types was around 50% or higher (Supplementary Figure S5). Following 24 h of exposure, 10 µL of CCK-8 reagent was added to each well. Absorbance Measurement: After an additional 1 h of incubation in the dark, the optical density (OD) at 450 nm was recorded using a microplate reader. Cell viability was calculated by comparing the OD values of treated groups with those of the blank control. Although some test concentrations exceeded the water solubility of the pesticides, the combination of DMSO and serum in the culture medium maintained a uniform exposure system. No precipitation was observed during the experiment, ensuring that the measured effects are attributed to the bioavailable fraction of the compound. […]
(§3) 1. Pesticide Exposure: After removing the medium, fresh medium containing gradient concentrations (0–2500 mg/L) of each pesticide was added (five replicates per concentration).
(§4) Following 24 h of exposure, 10 µL of CCK-8 reagent was added to each well.
(§5) 2. Absorbance Measurement: After 1 h of dark incubation, the OD at 450 nm was measured using a microplate reader.
(§6) 3. Cell Viability Calculation: Viability was determined by comparing the OD values of treated groups to the blank control. […]

[2] = tested on: IAR hepatocytes; experiment: CCK-8 cytotoxicity assay, IAR; assay type: cell-based; conditions: Rattus norvegicus, Hepatocyte; CCK-8, 24 h exposure
Experimental: as §1, §2, §3, §4, §5, §6

[3] = tested on: Rat; conditions: rat, in vivo, po; cited from earlier work
[4] = basis species not given; ref PPDB: Pesticide Properties DataBase; cited from earlier work
[5] = tested on: 293T renal cells; experiment: ELISA of toxicity biomarkers (LDH, KIM-1) in culture supernatant, 293T; assay type: cell-based, human; conditions: 293T cells, 24 h exposure at median lethal concentration, vs control
Experimental: The levels of hepatotoxicity biomarkers (ALT, AST, ALP) and nephrotoxicity biomarkers (KIM-1, LDH) in cell culture supernatant were quantified using commercially available ELISA kits (Cloud-Clone Corp., Wuhan, China). 100 μL of the supernatant was added to the pre-coated wells and incubated according to the manufacturer’s protocol (five replicates). After washing, the appropriate detection antibody and substrate were added, and the absorbance was measured at 450 nm using microplate reader. The concentrations of the biomarkers were determined based on standard curves.

[6] = tested on: MRP2 in CCC-HEL-1 hepatic cells; experiment: MRP2 immunofluorescence staining, CCC-HEL-1; assay type: cell-based, human; conditions: CCC-HEL-1 cells, 24 h at IC50, immunofluorescence
Experimental: Cells were seeded at a density of 1 × 10^5 cells per well in immunofluorescence-specific glass-bottom dishes and allowed to adhere for 24 h. […] Following treatment, cells were fixed with 4% paraformaldehyde for 15 min at room temperature and permeabilized with 0.1% Triton X-100 for 10 min. Non-specific binding was blocked with 5% bovine serum albumin (BSA) for 1 h at room temperature. Cells were then incubated with primary antibody against MRP2 (1:300 dilution) overnight at 4 °C. After three washes with PBS, cells were treated with secondary antibody (rabbit anti-IgG, 1:600 dilution) for 1 h at room temperature and washed three times with PBS. Anti-MRP2 antibody (Abcam, ab172630) and Alexa Fluor® 488-conjugated anti-rabbit IgG secondary antibody (Cell Signaling Technology, Danvers, MA, USA, 4412) were used for immunofluorescence staining. Nuclei were counterstained with DAPI Staining Solution (C1005, 10 mL) (Beyotime Biotechnology, Shanghai, China). Fluorescent images were captured using a 10× inverted fluorescence microscope. Quantitative analysis of fluorescence intensity was performed using ImageJ software 2.1.0 (National Institutes of Health, Bethesda, MD, USA).

[7] = tested on: NRK renal cells; experiment: CCK-8 cytotoxicity assay, NRK; assay type: cell-based; conditions: Rattus norvegicus; CCK-8, 24 h exposure
Experimental: as §1, §2, §3, §4, §5, §6

[8] = tested on: 293T renal cells; experiment: CCK-8 cytotoxicity assay, 293T; assay type: cell-based, human; conditions: Homo sapiens, HEK-293T, 24 h, CCK-8, 24 h exposure
Experimental: as §1, §2, §3, §4, §5, §6

SMILES: CCCC1COC(Cn2cncn2)(c2ccc(Cl)cc2Cl)O1 (centres unmarked) [Propiconazole, propiconazole]
- IC50 [1]: 72.6 µg/mL
- IC50 [2]: 189 µg/mL
- Mammals - Acute oral LD50 [3]: 550 mg/kg
- ADI - Acceptable Daily Intake [4]: 0.04 mg kg⁻¹ bw day⁻¹
- LDH release [5]: significantly increased; also recorded: significantly elevated LDH release
- MRP2 upregulation relative to controls [6]: 1.5 fold
- IC50 [7]: 203 µg/mL
- IC50 [8]: 27.2 µg/mL
